From patent publication US20080208039A1, “System and method of performing therapeutic endovascular interventions” (Wisconsin Alumni Research Foundation, priority 2007, published 2008)

Assay: Diffusion of a fluorescent probe in swollen gelatin gel by FRAP
Assay type: physicochemical
Source text: To assess the stability of DTPA[Gd(III)] in the gelatin coating, the diffusion of a fluorescence probe in gelatin was studied by the technique of fluorescence recovery after photobleaching (FRAP). The instrument and data analysis scheme are described in Kim, S. H. and Yu, H., J. Phys. Chem. 1992, 96, 4034, which is hereby fully incorporated by reference. Fluorescein was used as the fluorescence probe due, in part, to its molecular size being roughly the same as that of DTPA[Gd(III)].
The focus of the study was to examine the possible retardation effects of gelatin concentration and cross-link density on the diffusion, which was determined at room temperature, i.e., below the gel point of gelatin. The diffusion of fluorescein probe slows down with the increase of gelatin concentration. The diffusion coefficient decreases from 1.5×10-10 to 9×10-12 m2s-1 when the concentration of gelatin increases from 9% to 40%. […] Accordingly, the probe diffusion is more likely controlled by the concentration of gelatin rather than the cross-link density. On the other hand, the cross-link density may determine the swelling ratio of gelatin, i.e., the concentration of gelatin in aqueous solution. […]

time to diffuse out of the gelatin coating (coating thickness 60 μm, diffusion coefficient 9×10-12 m2s-1) | fluorescence remaining in gelatin films after soaking (gelatin films soaked in water for 18 hours, including films not cross-linked) | SMILES
about 67 seconds |  | O=C(O)CN(CCN(CC(=O)O)CC(=O)O)CCN(CC(=O)O)CC(=O)O [DTPA, diethylenetriaminepentaacetic acid]
 | still fluorescence signal | O=C1OC2(c3ccc(O)cc3Oc3cc(O)ccc32)c2ccccc21 [fluorescein]
